Assay [1] concerns the target T1, Glycine receptor subunit alpha-1 (Homo sapiens, UniProt P23415).
T1 sequence (P23415 whole entry): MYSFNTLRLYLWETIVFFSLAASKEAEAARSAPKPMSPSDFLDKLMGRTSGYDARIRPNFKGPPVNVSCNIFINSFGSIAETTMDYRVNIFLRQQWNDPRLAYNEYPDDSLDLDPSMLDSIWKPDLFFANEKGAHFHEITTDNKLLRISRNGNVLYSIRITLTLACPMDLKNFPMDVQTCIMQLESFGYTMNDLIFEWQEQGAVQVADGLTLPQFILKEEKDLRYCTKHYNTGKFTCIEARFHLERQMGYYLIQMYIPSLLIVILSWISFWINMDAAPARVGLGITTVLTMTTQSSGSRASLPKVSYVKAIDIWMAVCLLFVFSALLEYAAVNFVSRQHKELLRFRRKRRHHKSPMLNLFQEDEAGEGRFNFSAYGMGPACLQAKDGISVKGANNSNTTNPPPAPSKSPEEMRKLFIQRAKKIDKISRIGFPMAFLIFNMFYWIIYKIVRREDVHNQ
Put plainly: Positive allosteric modulation of human glycine alpha1 receptor expressed in HEK293T cells assessed as glycine-induced increase incurrent response after 18 to 24 hrs by membrane potential blue dye based FLIPR assay. The format is cell-based.

Assay [2] deals with Glycine receptor (alpha-1/beta) (Homo sapiens, UniProt P23415+P48167). As to the kind of experiment: Positive allosteric modulation of human glycine alpha1beta receptor expressed in HEK293T cells assessed as glycine-induced increase in current response after 18 to 24 hrs by membrane potential blue dye based FLIPR assay. The format is cell-based.
Glycine receptor (alpha-1/beta), sequence (P48167 whole entry, one chain of several): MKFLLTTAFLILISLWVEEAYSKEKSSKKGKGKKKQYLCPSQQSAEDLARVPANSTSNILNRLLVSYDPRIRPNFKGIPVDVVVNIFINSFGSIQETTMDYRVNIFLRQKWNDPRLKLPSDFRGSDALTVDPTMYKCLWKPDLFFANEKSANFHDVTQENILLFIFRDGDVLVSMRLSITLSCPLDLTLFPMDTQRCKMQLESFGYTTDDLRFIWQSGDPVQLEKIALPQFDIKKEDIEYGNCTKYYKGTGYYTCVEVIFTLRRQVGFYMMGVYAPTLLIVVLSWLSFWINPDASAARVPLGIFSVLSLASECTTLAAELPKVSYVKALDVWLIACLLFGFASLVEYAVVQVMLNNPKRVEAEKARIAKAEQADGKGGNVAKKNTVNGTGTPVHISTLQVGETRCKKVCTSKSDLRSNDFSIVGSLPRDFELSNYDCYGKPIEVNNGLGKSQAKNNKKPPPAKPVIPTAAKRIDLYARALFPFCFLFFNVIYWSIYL
Assay [3] deals with T2, Glycine receptor alpha-3/beta (Homo sapiens, UniProt O75311+P48167). Put plainly: Positive allosteric modulation of human glycine alpha3beta receptor expressed in HEK293T cells assessed as glycine-induced increase in current response after 18 to 24 hrs by membrane potential blue dye based FLIPR assay. Type of assay: cell-based.
T2 sequence (O75311 whole entry): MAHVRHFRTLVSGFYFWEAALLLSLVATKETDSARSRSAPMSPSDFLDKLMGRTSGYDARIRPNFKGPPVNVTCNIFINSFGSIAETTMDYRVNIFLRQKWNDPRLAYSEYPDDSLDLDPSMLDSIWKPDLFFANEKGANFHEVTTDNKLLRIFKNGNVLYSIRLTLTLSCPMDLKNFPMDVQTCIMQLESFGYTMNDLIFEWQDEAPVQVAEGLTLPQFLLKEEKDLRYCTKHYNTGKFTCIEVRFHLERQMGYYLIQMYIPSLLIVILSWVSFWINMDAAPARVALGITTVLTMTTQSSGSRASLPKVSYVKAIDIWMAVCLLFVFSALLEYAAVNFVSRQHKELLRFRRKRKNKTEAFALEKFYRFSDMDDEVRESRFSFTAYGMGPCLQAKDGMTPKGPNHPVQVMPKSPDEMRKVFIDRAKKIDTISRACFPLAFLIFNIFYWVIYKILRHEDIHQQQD
T2 sequence (P48167 whole entry): as the sequence (P48167 whole entry, one chain of several) above
Assay [4] deals with T2, Glycine receptor alpha-3/beta. As to the kind of experiment: Positive allosteric modulation of human glycine alpha3beta receptor expressed in HEK293T cells assessed as potentiation of glycine-induced increase in current response after 18 to 24 hrs by membrane potential blue dye based FLIPR assay relative to glycine. Type of assay: cell-based.
Assay [5] deals with T3, Neuronal acetylcholine receptor; alpha4/beta2 (Homo sapiens, UniProt P17787+P43681). As to the kind of experiment: Agonist activity at alpha4beta2 nAChR (unknown origin). Type of assay: protein-complex assay.
T3 sequence (P17787 whole entry): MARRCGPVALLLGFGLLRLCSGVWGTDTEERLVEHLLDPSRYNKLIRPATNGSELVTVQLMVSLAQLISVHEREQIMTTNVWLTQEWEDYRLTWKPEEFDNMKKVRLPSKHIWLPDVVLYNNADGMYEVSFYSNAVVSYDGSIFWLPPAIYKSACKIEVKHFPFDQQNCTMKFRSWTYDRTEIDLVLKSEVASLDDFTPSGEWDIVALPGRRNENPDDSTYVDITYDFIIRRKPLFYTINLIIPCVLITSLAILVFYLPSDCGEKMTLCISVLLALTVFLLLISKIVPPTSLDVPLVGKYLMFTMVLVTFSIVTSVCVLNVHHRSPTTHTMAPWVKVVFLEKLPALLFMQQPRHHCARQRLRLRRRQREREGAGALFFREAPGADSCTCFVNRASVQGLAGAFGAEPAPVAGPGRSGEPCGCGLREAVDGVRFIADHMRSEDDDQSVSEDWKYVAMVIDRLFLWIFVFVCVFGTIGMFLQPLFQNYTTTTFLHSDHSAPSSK
T3 sequence (P43681 whole entry): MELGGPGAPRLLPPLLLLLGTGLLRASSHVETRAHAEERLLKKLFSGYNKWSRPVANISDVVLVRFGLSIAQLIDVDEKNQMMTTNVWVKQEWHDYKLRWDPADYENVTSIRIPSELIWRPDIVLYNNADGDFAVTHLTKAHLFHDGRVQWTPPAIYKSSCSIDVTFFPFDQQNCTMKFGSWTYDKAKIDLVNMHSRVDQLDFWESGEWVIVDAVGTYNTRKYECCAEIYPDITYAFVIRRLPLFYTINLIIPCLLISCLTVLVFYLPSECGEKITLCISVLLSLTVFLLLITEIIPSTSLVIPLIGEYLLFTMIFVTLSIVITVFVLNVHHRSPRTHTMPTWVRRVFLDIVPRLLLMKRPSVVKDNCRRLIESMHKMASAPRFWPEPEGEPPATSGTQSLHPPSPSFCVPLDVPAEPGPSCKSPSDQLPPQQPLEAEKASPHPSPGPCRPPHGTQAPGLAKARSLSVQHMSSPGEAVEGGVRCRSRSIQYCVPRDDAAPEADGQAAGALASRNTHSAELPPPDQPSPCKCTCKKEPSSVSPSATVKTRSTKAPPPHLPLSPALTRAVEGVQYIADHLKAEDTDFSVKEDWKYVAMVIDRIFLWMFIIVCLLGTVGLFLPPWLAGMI
In assay [6] the target is T3, Neuronal acetylcholine receptor; alpha4/beta2. Put plainly: Inhibition of alpha4beta2 nAChR (unknown origin). Type of assay: protein-complex assay.
Assay [7] addresses T4, 5-hydroxytryptamine receptor 3A (Homo sapiens, UniProt P46098).
T4 sequence (P46098 whole entry): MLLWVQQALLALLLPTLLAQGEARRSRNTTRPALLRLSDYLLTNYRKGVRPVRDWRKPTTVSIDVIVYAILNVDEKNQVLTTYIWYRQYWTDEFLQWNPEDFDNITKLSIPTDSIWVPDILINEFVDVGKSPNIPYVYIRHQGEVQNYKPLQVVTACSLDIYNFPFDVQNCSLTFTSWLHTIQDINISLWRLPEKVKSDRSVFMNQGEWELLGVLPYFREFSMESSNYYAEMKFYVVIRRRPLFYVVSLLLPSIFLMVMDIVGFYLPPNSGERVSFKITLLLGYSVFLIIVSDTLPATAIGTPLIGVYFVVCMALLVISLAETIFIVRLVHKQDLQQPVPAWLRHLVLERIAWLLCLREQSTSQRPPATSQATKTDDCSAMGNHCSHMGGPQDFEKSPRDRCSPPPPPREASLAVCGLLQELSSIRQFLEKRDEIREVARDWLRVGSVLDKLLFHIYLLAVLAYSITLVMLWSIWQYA
As to the kind of experiment: Agonist activity at 5-HT3 receptor (unknown origin).

Assay [8] addresses T4, 5-hydroxytryptamine receptor 3A. Put plainly: Inhibition of 5-HT3 receptor (unknown origin).
In assay [9] the target is Gamma-aminobutyric acid receptor subunit alpha-1/beta-2/gamma-2 (Mus musculus, UniProt P22723+P62812+P63137). As to the kind of experiment: Positive allosteric modulation of C57BL/6 mouse GABAA receptor alpha1beta2gamma2 assessed as increase in GABA-induced current response at -60 mV holding potential by whole cell patch-clamp method relative to GABA. Type of assay: protein-complex assay. On the technique in general: Patch clamp records ionic current or voltage across a cell membrane.
Gamma-aminobutyric acid receptor subunit alpha-1/beta-2/gamma-2, sequence (P22723 whole entry): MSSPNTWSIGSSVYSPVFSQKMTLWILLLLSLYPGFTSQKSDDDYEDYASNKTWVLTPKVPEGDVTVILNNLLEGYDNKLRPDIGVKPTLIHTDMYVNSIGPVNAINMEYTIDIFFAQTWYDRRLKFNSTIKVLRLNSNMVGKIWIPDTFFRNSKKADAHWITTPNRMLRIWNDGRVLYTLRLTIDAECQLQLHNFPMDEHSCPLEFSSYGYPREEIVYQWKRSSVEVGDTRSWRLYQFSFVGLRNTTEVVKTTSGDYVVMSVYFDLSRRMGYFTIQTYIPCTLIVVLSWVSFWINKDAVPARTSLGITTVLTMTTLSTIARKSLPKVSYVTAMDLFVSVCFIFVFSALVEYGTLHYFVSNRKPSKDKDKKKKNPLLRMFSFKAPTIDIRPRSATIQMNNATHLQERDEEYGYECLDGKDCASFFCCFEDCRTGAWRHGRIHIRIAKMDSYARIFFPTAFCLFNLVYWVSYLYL
Gamma-aminobutyric acid receptor subunit alpha-1/beta-2/gamma-2, sequence (P62812 whole entry): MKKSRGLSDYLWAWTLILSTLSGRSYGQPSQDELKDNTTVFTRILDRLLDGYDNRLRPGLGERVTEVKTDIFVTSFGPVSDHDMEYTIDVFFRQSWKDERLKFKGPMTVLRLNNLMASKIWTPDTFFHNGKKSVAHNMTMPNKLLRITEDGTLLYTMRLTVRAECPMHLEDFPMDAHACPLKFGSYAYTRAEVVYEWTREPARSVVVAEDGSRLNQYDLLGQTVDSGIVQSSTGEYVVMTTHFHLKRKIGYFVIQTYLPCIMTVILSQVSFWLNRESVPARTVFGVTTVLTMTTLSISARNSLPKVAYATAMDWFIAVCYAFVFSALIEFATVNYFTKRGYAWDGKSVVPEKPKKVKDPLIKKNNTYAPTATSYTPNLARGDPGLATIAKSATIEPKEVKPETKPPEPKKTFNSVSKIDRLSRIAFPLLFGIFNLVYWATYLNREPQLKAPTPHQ
Gamma-aminobutyric acid receptor subunit alpha-1/beta-2/gamma-2, sequence (P63137 whole entry): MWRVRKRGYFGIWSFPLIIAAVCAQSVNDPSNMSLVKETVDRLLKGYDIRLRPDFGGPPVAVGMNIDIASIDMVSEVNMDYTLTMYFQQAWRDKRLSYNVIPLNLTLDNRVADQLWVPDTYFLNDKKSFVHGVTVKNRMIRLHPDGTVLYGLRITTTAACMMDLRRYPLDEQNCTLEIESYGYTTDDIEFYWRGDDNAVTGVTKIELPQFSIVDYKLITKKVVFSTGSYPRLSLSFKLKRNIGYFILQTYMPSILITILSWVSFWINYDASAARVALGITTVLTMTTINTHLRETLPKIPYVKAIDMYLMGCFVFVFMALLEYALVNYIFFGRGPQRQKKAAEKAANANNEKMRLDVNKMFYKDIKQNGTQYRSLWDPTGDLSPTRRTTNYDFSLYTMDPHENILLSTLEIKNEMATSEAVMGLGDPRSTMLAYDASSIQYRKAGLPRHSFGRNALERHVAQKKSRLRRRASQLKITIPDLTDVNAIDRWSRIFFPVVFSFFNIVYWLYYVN

Assay [10] has as its target T5, Gamma-aminobutyric acid receptor subunit alpha-1/beta-3/gamma-2 (Mus musculus, UniProt P22723+P62812+P63080). As to the kind of experiment: Positive allosteric modulation of C57BL/6 mouse GABAA receptor alpha1beta3gamma2 assessed as increase in GABA-induced current response at -60 mV holding potential by whole cell patch-clamp method relative to GABA. The format is protein-complex assay.

Assay [11] has as its target T5, Gamma-aminobutyric acid receptor subunit alpha-1/beta-3/gamma-2. Put plainly: Inhibition of C57BL/6 mouse GABAA receptor alpha1beta3gamma2. Type of assay: protein-complex assay.
Assay [12] has as its target Glycine receptor subunit alpha-3 (Homo sapiens, UniProt O75311). As to the kind of experiment: Positive allosteric modulation of recombinant human glycine receptor alpha3 expressed in CHOK1 cells at -60 mV holding potential by whole cell patch-clamp method. The format is cell-based.
For assay [13], the target named is Glycine receptor subunit alpha-3 (Homo sapiens) (UniProt O75311). As to the kind of experiment: Positive allosteric modulation of recombinant human glycine receptor alpha3 expressed in CHOK1 cells assessed as potentiation of glycine-induced current at 20 uM at -60 mV holding potential by whole cell patch-clamp method relative to glycine. The format is cell-based.
Glycine receptor subunit alpha-3 (Homo sapiens), sequence (O75311 whole entry): as the sequence (O75311 whole entry) above

Assay [14] addresses T6, Glycine receptor subunit alpha-1 (Homo sapiens) (UniProt P23415).
T6 sequence (whole entry): T1 sequence (P23415 whole entry)
Put plainly: Positive allosteric modulation of recombinant human glycine receptor alpha1 expressed in CHOK1 cells assessed as potentiation of glycine-induced current at 10 uM at -60 mV holding potential by whole cell patch-clamp method relative to glycine. Type of assay: cell-based.

Assay [15] addresses GABA-A receptor; alpha-1/beta-3/gamma-2 (Homo sapiens) (UniProt P14867+P18507+P28472). As to the kind of experiment: Positive allosteric modulation of recombinant human GABAA receptor alpha1beta3gamma2 expressed in CHOK1 cells assessed as potentiation of GABA-induced current at 10 uM at -60 mV holding potential by whole cell patch-clamp method relative to GABA. The format is cell-based.

Assay [16] concerns the target GABA-A receptor; alpha-2/beta-3/gamma-2 (Homo sapiens) (UniProt P18507+P28472+P47869). Put plainly: Positive allosteric modulation of recombinant human GABAA receptor alpha2beta3gamma2 expressed in CHOK1 cells assessed as potentiation of GABA-induced current at 10 uM at -60 mV holding potential by whole cell patch-clamp method relative to GABA. Type of assay: cell-based.

A word on the EC50: it is the midpoint of the concentration-response curve. One may read the IC50 as the point on the concentration scale where inhibition reaches its midpoint. A lower IC50 goes with inhibition by little substance.

T5 sequence (P22723 whole entry): as the sequence (P22723 whole entry) above
T5 sequence (P62812 whole entry): as the sequence (P62812 whole entry) above
T5 sequence (P63080 whole entry): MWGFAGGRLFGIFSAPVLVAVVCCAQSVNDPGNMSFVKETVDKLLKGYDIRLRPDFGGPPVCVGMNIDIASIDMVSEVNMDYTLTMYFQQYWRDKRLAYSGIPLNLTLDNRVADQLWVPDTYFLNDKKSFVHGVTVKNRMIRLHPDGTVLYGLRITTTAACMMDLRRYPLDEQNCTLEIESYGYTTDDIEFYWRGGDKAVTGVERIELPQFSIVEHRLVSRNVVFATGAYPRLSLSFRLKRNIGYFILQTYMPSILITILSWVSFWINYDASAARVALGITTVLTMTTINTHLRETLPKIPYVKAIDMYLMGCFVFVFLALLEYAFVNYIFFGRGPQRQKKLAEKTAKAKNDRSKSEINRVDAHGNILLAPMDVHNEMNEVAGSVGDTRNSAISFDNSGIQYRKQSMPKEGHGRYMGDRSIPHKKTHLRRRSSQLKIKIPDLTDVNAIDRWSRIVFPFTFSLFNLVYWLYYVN
Glycine receptor subunit alpha-3, sequence (O75311 whole entry): as the sequence (O75311 whole entry) above

Consider `C[C@H]1[C@H]2C(=O)N(C)c3ccncc3[C@H]2CN1S(=O)(=O)c1ccc2c(c1)OCO2`, for which the EC50 in [1] was 0.032 µM; in [2], 0.016 µM; in assay [3] it was 0.066 µM; in assay [5], more than 25 µM; in assay [7], more than 25 µM; in assay [9], more than 50 µM. In addition, the EC50 in assay [10] is more than 30 µM. In addition, the fold change (FC) in assay [4] came to 11. In addition, the figures for the IC50 in assay [6], in assay [8] and in assay [11] were more than 25 µM, more than 30 µM and more than 30 µM, respectively.

Take `O=S(=O)(NCCOc1cccc2cccnc12)c1ccc(F)cc1`: the EC50 in [12] turned out to be 3.9 µM. Moreover, the fold change (FC) in [13] is 28; in assay [14], 39.7; in assay [15] it was 0; in [16], 0.

The values above are taken from ChEMBL document CHEMBL4219030, “Progress in the discovery of small molecule modulators of the Cys-loop superfamily receptors” (Bioorg Med Chem Lett, 2017).
